# Experimental data taken from ChEMBL document CHEMBL5338755, “Thiophene Carboxamide Analogs with Long Alkyl Chains Comprising Ethylene Glycol Units Inhibit Glioblastoma Cell Proliferation by Activating AMPK” (J Med Chem, 2023).
# pEC50: −log10 of the molar value. Calls of active or inactive are those of the source. No cut-off for these calls is given here.
# Key:
# Glioblastoma stem cell [1] = assay: Inhibition of cell proliferation of human Glioblastoma stem cell assessed as reduction in viable cell number at 100 to 500 nM measured after 72 hrs by trypan blue exclusion assay; format: functional, cell-based; details: dose 100-500 nM
# Glioblastoma stem cell [2] = assay: Activation of AMPK in human Glioblastoma stem cell assessed as increase in AMPK phosphorylation level at 500 nM measured after 48 hrs; format: cell-based
# Glioblastoma stem cell [3] = assay: Activation of AMPK in human Glioblastoma stem cell assessed as inhibition of cell growth at 500 nM measured after 48 hrs; format: cell-based
# Glioblastoma stem cell [4] = assay: Inhibition of cell proliferation of human Glioblastoma stem cell assessed as reduction in viable cell number at 500 nM measured after 72 hrs by trypan blue exclusion assay; format: functional, cell-based
# [5] = Antiproliferative activity against human Glioblastoma stem cell assessed as reduction in cell count at 100 to 500 nM measured after 72 hrs by trypan blue exclusion assay; format: functional; details: dose 100-500 nM
# Glioblastoma stem cell [6] = assay: Activation of AMPK in human Glioblastoma stem cell assessed as increase in AMP/ATP ratio at 500 nM measured after 48 hrs; format: cell-based; details: filed as activator
# Glioblastoma stem cell [7] = assay: Activation of AMPK in human Glioblastoma stem cell assessed as increase in intracellular AMP level at 500 nM measured after 48 hrs by AMP-Glo assay; format: cell-based; details: filed as activator
# Glioblastoma cell line [8] = assay: Antitumor activity against human Glioblastoma stem cell xenografted in mouse model assessed as improvement in event-free survival rate at 10 mg/kg, ip administered 3 times in a week for 40 days; format: functional, organism-based; details: time 40.0 day
# U-251 [9] = assay: Synergistic antiproliferative activity against human U-251 cells incubated for 6 days in presence of temozolomide by trypan blue staining based automated cell counter analysis; format: functional; details: U-251, 144 h, time 6 day, read-out: ED50 (the source's name)
# Glioblastoma cell line [10] = assay: Antitumor activity against human Glioblastoma stem cell xenografted in mouse model assessed as suppression of tumor growth by measuring luminescence signals at 10 mg/kg, ip administered 3 times in a week for and measured after 3 weeks by IVIS Lumina XR imaging system; format: functional, organism-based
# U-251 [11] = assay: Synergistic antiproliferative activity against human U-251 cells assessed as combination index at ED50 concentration incubated for 6 days in presence of temozolomide by trypan blue staining based automated cell counter analysis; format: functional; details: time 6 day
# SW48 = assay: Antitumor activity against human SW48 cells xenografted in CB-17 SCID mouse assessed as reduction in tumor size at 20 mg/kg administered daily and measured after 3 weeks by vernier caliper method (reference value: 997+/-180 mm3); format: functional
# [12] = Toxicity in CB-17 SCID mouse xenografted with human SW48 cells assessed as drug tolerance at 20 mg/kg administered daily and measured after 3 weeks; format: organism-based; details: in vivo, 504 h
# U-251 [13] = assay: Synergistic antiproliferative activity against human U-251 cells assessed as combination index at ED75 concentration incubated for 6 days in presence of temozolomide by trypan blue staining based automated cell counter analysis; format: functional; details: time 6 day
# Glioblastoma stem cell [14] = assay: Activation of AMPK in human Glioblastoma stem cell assessed as decrease in intracellular ATP level at 500 nM measured after 48 hrs by celltiter-glo luminescent cell viability assay; format: cell-based; details: filed as activator
# [15] = Toxicity in CB-17 SCID mouse xenografted with human SW48 cells assessed as body weigh loss at 20 mg/kg administered daily and measured after 3 weeks; format: organism-based; details: in vivo, 504 h
smiles,measurement,setting,value
CCCCCCOCCOCCOCCOCCCCCCCCCCCCNC(=O)c1ccsc1,inhibition,Glioblastoma stem cell [1],inactive
CCCCCCCCCOCCOCCOCCOCCCCCCCCCCCCNC(=O)c1ccsc1,Activity,Glioblastoma stem cell [2]; filed as activator,Active
same,Activity,Glioblastoma stem cell [3]; filed as activator,Active
same,inhibition,Glioblastoma stem cell [1],Active
CCCOCCOCCOCCOCCCCCCCCCCCCNC(=O)c1ccsc1,inhibition,Glioblastoma stem cell [4],Active
same,inhibition,Glioblastoma stem cell [1],inactive
COCCOCCOCCOCCCCCCCCCCCCNC(=O)c1ccsc1C,inhibition,Glioblastoma stem cell [1],inactive
COCCOCCOCCOCCCCCCCCCCCCNC(=O)c1csc(Br)c1,inhibition,Glioblastoma stem cell [1],inactive
COCCOCCOCCOCCCCCCCCCCCCNC(=O)c1cscc1Br,inhibition,Glioblastoma stem cell [4],Active
COCCOCCOCCOCCCCCCCCCCCCNC(=O)c1cscc1C,inhibition,Glioblastoma stem cell [1],inactive
COCCOCCOCCOCCCCCCCCCCCCNC(=O)c1ccsc1,inhibition,Glioblastoma stem cell [4],Active
same,Activity,[5],483000
same,inhibition,Glioblastoma stem cell [1],inactive
CCCCCCCCCCOCCOCCOCCOCCCCCCCCCCCCNC(=O)c1ccsc1,Activity,Glioblastoma stem cell [6],Active
same,Activity,Glioblastoma stem cell [7],Active
same,Activity,Glioblastoma cell line [8],Active
same,Activity,Glioblastoma stem cell [2]; filed as activator,Active
same,pEC50,U-251 [9],7.37
same,Activity,Glioblastoma cell line [10],Active
same,CI,U-251 [11],0.325
same,Activity,SW48,352 mm3
same,Activity,[12],Non-Toxic
same,Activity,Glioblastoma stem cell [3]; filed as activator,Active
same,CI,U-251 [13],0.765
same,inhibition,Glioblastoma stem cell [1],Active
same,Activity,Glioblastoma stem cell [14],Active
same,Activity,[15],Non-Toxic
CCCCCCCCCCCC[C@@H](O)[C@@H]1CC[C@@H]([C@H](O)CCCCCCCCCCNC(=O)c2ccsc2)O1,Activity,[5],153000
same,pEC50,U-251 [9],6.75
same,CI,U-251 [11],0.972
O=C(NCCCCCCCCCCCCOCCOCCOCCO)c1ccsc1,inhibition,Glioblastoma stem cell [1],inactive
COCCOCCOCCOCCCCCCCCCCCCNC(=O)c1csc(C)c1,Activity,Glioblastoma stem cell [2],inactive
same,Activity,Glioblastoma stem cell [3],inactive
same,inhibition,Glioblastoma stem cell [1],inactive
